Results taken from paper PMC5119973 (Cancer Medicine, 2016).
“And” between values parts separate entries of the source, which are not always exact repeats. Equal values may be shown once.

Key:
CDK11 = target: T1, CDK11 (Homo sapiens, UniProt Q9BWU1); assay: KINOMEscan active-site competitive binding assay; details: slash = two separate measurements
T1 construct: purchased DiscoveRx (KINOMEscan service)

DDR2 = target: T2, DDR2 (Homo sapiens, UniProt Q16832); assay: KINOMEscan active-site competitive binding assay; details: slash = two separate measurements
T2 construct: purchased DiscoveRx (KINOMEscan service)
T2 sequence (Q16832 22-855): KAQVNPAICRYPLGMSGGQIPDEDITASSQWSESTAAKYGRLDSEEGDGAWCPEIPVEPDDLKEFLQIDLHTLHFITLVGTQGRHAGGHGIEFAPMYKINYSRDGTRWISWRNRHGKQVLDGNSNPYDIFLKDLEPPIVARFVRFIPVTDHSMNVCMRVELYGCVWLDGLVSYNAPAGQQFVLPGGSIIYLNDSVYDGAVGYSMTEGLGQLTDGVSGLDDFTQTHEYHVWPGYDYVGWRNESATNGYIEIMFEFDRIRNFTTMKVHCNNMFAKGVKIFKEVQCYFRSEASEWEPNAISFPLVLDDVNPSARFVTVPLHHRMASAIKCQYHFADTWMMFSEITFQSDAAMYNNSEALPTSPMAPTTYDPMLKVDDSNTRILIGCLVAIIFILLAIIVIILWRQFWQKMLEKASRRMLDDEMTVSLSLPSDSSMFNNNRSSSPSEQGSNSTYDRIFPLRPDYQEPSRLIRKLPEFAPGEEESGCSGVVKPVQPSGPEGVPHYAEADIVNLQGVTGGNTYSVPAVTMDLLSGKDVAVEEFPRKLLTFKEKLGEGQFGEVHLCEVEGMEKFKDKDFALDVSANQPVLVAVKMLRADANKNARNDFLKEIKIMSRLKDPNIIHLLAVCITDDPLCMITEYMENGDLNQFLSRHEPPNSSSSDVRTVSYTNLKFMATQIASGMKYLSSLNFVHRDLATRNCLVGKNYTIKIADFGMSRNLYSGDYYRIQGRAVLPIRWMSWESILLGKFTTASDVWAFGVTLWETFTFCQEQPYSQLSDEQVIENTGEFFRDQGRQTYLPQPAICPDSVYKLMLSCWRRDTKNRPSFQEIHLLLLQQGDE

EPHA6 = target: T3, EPHA6 (Homo sapiens, UniProt Q9UF33); assay: KINOMEscan active-site competitive binding assay; details: slash = two separate measurements
T3 construct: purchased DiscoveRx (KINOMEscan service)
T3 sequence (Q9UF33 23-1036): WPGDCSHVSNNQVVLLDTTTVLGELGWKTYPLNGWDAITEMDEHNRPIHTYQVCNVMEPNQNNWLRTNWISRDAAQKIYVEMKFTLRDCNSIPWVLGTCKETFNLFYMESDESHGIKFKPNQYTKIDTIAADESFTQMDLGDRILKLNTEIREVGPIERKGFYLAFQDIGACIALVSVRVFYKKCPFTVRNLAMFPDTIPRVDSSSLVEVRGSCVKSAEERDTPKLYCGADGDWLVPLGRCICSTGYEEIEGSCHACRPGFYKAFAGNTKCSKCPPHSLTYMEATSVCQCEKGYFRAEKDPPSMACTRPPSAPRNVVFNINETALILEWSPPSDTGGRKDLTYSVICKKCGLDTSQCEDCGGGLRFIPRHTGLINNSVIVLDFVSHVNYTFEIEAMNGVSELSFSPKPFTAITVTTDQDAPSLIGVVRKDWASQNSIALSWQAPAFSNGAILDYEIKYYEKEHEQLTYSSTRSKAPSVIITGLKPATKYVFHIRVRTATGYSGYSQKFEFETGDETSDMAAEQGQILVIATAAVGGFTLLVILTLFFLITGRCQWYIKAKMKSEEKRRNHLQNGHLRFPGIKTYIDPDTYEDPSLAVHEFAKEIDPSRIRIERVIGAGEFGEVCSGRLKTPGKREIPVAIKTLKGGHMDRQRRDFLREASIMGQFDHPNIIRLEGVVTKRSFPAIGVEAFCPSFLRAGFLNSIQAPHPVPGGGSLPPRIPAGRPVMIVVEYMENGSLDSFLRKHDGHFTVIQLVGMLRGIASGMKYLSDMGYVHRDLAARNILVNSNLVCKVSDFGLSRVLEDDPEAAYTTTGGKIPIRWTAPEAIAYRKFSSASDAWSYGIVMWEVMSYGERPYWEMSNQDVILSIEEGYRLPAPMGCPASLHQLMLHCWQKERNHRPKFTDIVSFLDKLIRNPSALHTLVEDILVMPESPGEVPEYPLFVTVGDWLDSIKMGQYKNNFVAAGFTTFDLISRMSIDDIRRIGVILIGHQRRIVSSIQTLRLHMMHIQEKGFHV

p38-beta = target: T4, p38-beta (Homo sapiens, UniProt Q15759); assay: KINOMEscan active-site competitive binding assay; details: slash = two separate measurements
T4 construct: purchased DiscoveRx (KINOMEscan service)
T4 sequence (Q15759 whole entry): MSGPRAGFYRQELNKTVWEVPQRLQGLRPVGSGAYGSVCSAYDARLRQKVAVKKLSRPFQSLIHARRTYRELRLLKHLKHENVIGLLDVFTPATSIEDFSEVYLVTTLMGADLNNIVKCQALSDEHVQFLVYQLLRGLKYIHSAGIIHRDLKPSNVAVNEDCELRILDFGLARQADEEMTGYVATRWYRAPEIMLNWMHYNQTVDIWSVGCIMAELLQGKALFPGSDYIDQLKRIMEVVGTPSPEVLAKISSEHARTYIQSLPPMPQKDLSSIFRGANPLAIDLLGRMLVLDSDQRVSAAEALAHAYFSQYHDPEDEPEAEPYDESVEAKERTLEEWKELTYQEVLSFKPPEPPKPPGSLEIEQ

[1] = tested on: EGFR family kinases, the protein kinase C family, insulin and insulin‐like growth factor receptor kinases, MET, MEK family kinases (with the exception of …); assay: KINOMEscan active-site competitive binding assay, kinases not inhibited; details: concentrations up to 1 μmol/L; data not shown
MDA‐MB‐231 = MDA‐MB‐231 breast cancer xenograft in NMRI nu/nu mice; assay type: in vivo, mouse; details: for Tumor growth inhibition (%): MDA-MB-231, end of study day 40; for Tumor growth versus vehicle control: MDA‐MB‐231 model, P < 0.05 for all groups
Experimental: Mouse experiments were approved by the relevant regulatory agency of the federal state of Berlin (Landesamt für Gesundheit und Soziales Berlin, approval number G0221/03). Mice were maintained in individually ventilated cages in groups of four mice per cage. They received autoclaved food and bedding (Ssniff, Soest, Germany) and acidified (pH 4.0) tap water ad libitum. The animal facility was equipped with an automatic 12 h light/dark regulation, temperature regulation at 22 ± 2°C, and relative humidity of 50 ± 10%. Female NMRI nu/nu mice (purchased from Charles River, Sulzfeld, Germany) were inoculated with 1 × 10^7 MDA‐MB‐231 or HT‐29 cells, which were allowed to grow subcutaneously to a palpable size of approximately 60–100 mm^3. […] All administrations were performed in the morning, without anesthesia. Tumor volume was determined twice per week using caliper measurements, and the volume was calculated using the formula (D × d^2)/2, with d defined as the minor axis and D as the major axis of the measurement. Tumor growth inhibition was calculated as relative tumor volume in relation to the first treatment day.
Changes in tumor volume were statistically evaluated by two‐way repeated‐measures analysis of variance, followed by Bonferroni correction, using GraphPad Prism 5 (San Diego, CA), and P < 0.05 was regarded as significant. Additionally, body weight of all mice was determined twice weekly, and the health status of the animals, including behavioral changes, was recorded daily.

T1 sequence (Q9BWU1 whole entry): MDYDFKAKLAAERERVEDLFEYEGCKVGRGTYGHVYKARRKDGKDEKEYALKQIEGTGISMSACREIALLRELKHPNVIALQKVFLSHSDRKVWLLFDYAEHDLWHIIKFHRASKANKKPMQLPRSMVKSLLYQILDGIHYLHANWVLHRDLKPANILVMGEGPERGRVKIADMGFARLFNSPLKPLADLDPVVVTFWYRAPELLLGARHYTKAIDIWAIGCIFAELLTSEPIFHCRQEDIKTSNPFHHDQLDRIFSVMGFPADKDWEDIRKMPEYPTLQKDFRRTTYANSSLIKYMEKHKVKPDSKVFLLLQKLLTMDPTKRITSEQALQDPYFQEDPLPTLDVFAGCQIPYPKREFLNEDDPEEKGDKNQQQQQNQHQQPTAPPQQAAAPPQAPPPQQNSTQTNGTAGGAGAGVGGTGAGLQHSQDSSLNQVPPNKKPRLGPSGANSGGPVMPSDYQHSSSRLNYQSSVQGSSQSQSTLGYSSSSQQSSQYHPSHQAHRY

Row | Compound | Kd (CDK11) | Kd (DDR2) | Kd (EPHA6) | Kd (p38-beta) | Inhibition of binding [1] | Tumor growth inhibition (%) (MDA‐MB‐231; 3 mg/kg/day oral for 27 days) | Tumor growth inhibition (%) (MDA‐MB‐231; 10 mg/kg/day oral for 27 days) | Tumor growth versus vehicle control (MDA‐MB‐231)
1 | CNC(=O)c1cc(Oc2ccc(NC(=O)Nc3ccc(Cl)c(C(F)(F)F)c3)c(F)c2)cc[n+]1[O-] [M‐2] | 33 nM | 5.3 nM | 210 nM | 8.7 nM | No inhibition | 49% | 70% | significantly inhibited tumor growth
2 | NC(=O)c1cc(Oc2ccc(NC(=O)Nc3ccc(Cl)c(C(F)(F)F)c3)c(F)c2)cc[n+]1[O-] [M‐5] | 86 nM | 2.5 nM | 640 nM | 25 nM | No inhibition | 60% | 59% | significantly inhibited tumor growth
3 | CNC(=O)c1cc(Oc2ccc(NC(=O)Nc3ccc(Cl)c(C(F)(F)F)c3)c(F)c2)ccn1 [Regorafenib, reference compound] | 67 nM and 43 nM | 9.2 nM and 9.7 nM | 48 nM and 23 nM | 44 nM and 28 nM | No inhibition | 44% | 72% | significantly inhibited tumor growth
